Results published in patent US20130202653A1, “3-ARYL-3-HYDROXY-2-AMINO-PROPIONIC ACID AMIDES, 3-HETEROARYL-3-HYDROXY-2-AMINOPROPIONIC ACID AMIDES AND RELATED COMPOUNDS HAVING ANALGESIC AND/OR IMMUNO STIMULANT ACTIVITY” (Allergan, Inc., priority 2005, published 2013).
Structures can show the parent of a compound that is named as a salt. Where two headings read alike, the source gives them in different places.

System: tactile allodynia in the rat Chung model
Assay: Chung model: reversal of tactile allodynia (von Frey hairs) after spinal nerve ligation
Format: in vivo
From the text: An art-accepted model or assay for measuring an analgesic effect of a compound in chronic pain (in particular peripheral neuropathy) is the model known as Kim and Chung 1992, Pain […], pp 355-363 (Chung model). This model involves the surgical ligation of the L5 (and optionally the L6) spinal nerves on one side in experimental animals. Rats recovering from the surgery gain weight and display a level of general activity similar to that of normal rats. However, these rats develop abnormalities of the foot, wherein the hindpaw is moderately everted and the toes are held together. More importantly, the hindpaw on the side affected by the surgery appears to become sensitive to low-threshold mechanical stimuli and will perceive pain instead of the faint sensation of touch. This sensitivity to normally non-painful touch, called “tactile allodynia”, develops within the first week after surgery and lasts for at least two months. The allodynia response includes lifting the affected hindpaw to escape from the stimulus, licking the paw and holding it in the air for many seconds. None of these responses is normally seen in the control group.
To produce the tactile allodynia, rats are anesthetized before surgery. The surgical site is shaved and prepared either with betadine or Novacaine. Incision is made from the thoracic vertebra X111 down toward the sacrum. Muscle tissue is separated from the spinal vertebra (left side) at the L4-S2 levels. The L6 vertebra is located and the transverse process is carefully removed with a small rongeur to expose the L4-L6 spinal nerves. The L5 and L6 spinal nerves are isolated and tightly ligated with 6-0 silk thread. The same procedure is done on the right side as a control, except no ligation of the spinal nerves is performed.
After a complete hemostasis is confirmed, the wounds are sutured. A small amount of antibiotic ointment is applied to the incised area, and the rat is transferred to the recovery plastic cage under a regulated heat-temperature lamp.
On the day of the experiment, at least seven days after the surgery, typically six rats per test group are administered the test drugs by intraperitoneal (i.p.) injection or oral gavage (p.o.). For i.p. administration, the compounds are formulated in H2O and given in a volume of 1 ml/kg body weight by injecting into the intraperitoneal cavity. For p.o. administration, the compounds are formulated in H2O and given in a volume of 1 ml/kg body weight using an 18-gauge, 3 inch gavage needle that is slowly inserted through the esophagus into the stomach.
Tactile allodynia is assessed via von Frey hairs, which are a series of fine hairs with incremental differences in stiffness. Rats are placed in a plastic cage with a wire mesh bottom and allowed to acclimate for approximately 30 minutes. To establish the pre-drug baseline, the von Frey hairs are applied perpendicularly through the mesh to the mid-plantar region of the rats' hindpaw with sufficient force to cause slight buckling and held for 6-8 seconds. The applied force has been calculated to range from 0.41 to 15.1 grams. If the paw is sharply withdrawn, it is considered a positive response. A normal animal will not respond to stimuli in this range, but a surgically ligated paw will be withdrawn in response to a 1-2 gram hair. The 50% paw withdrawal threshold is determined using the method of Dixon, W. J., Ann. Rev. Pharmacol. Toxicol. 20:441-462 (1980) hereby incorporated by reference. Tactile allodynia is measured prior to and 15, 30, and 60 minutes after drug administration. The post-drug threshold is compared to the pre-drug threshold and the percent reversal of tactile sensitivity is calculated based on a normal threshold of 15.1 grams.
Table 1 below indicates the degree of pain reversal obtained in the Chung model with exemplary compounds of the invention. […]

[1] = Rattus norvegicus, ip, 1 h, 300 μg/kg IP, peak at 60 min post dose, read-out: Peak % Pain reversal: time post dose
[2] = Rattus norvegicus, ip, 0.5 h, 300 μg/kg IP, peak at 30 min post dose, read-out: Peak % Pain reversal: time post dose

| Structure (SMILES) | inhibition in vivo at 0.3 mg/kg [1] [%] | also measured |
| --- | --- | --- |
| NC(C(=O)N1CC[C@H](F)C1)C(O)c1ccncc1 (single isomer, unassigned; (-)) [Compound 248, dihydrochloride] | – | inhibition in vivo at 0.03 mg/kg (Rattus norvegicus, ip, 1 h, 30 μg/kg IP, peak at 60 min post dose, read-out: Peak % Pain reversal: time post dose): 59% |
| NCCCCCC(=O)N[C@@H](C(=O)N1CCCC1)[C@@H](O)c1ccncc1 (racemic) [Compound 238, 6-amino-N-((±)-threo-1-hydroxy-3-oxo-1-(pyridin-4-yl)-3-(pyrrolidin-1-yl)propan-2-yl)hexanamide] | 61 | – |
| N[C@H](Cc1ccncc1)C(=O)N1CCCC1 [Compound 236, (R)-2-amino-3-(pyridin-4-yl)-1-(pyrrolidin-1-yl)propan-1-one dihydrochloride] | 32 | – |
| C[C@@](O)(c1ccncc1)[C@@H](N)C(=O)N1CCCC1 (racemic) [Compound 239, (±)-erythro-2-Amino-3-hydroxy-3-(pyridin-4-yl)-1-(pyrrolidin-1-yl)butan-1-one dihydrochloride] | – | inhibition in vivo at 0.3 mg/kg [2]: 75% |
| O=C([C@H](NCc1ccccc1I)[C@@H](O)c1ccncc1)N1CCCC1 (racemic) [Compound 226, (±)-threo-2-(2-iodobenzylamino)-3-hydroxy-3-(pyridin-4-yl)-1-(pyrrolidin-1-yl)-propan-1-one dihydrochloride] | 95 | – |
| N[C@@H](C(=O)N1CCCC1)[C@@H](O)c1ccc[nH]c1=O (racemic) [Compound 49, 3-(DL-threo-2-Amino-1-hydroxy-3-oxo-3-pyrrolidin-1-yl-propyl)-1H-pyridin-2-one hydrochloride] | – | inhibition in vivo at 0.1 mg/kg (Rattus norvegicus, ip, 1 h, 100 μg/kg IP, peak at 60 min post dose, read-out: Peak % Pain reversal: time post dose): 85% |
| O=C([C@H](NCc1cccc(I)c1)[C@@H](O)c1ccncc1)N1CCCC1 (racemic) [Compound 227, (±)-threo-2-(3-iodobenzylamino)-3-hydroxy-3-(pyridin-4-yl)-1-(pyrrolidin-1-yl)-propan-1-one dihydrochloride] | – | inhibition in vivo at 0.3 mg/kg [2]: 95% |
| Cl.Cl.N[C@H](C(=O)N1CC[C@@H](O)C1)[C@H](O)c1ccncc1 [Compound 247, (2S,3R)- & (2R,3S)-2-Amino-1-((R)-3-hydroxypyrrolidin-1-yl)-3-hydroxy-3-(pyridin-4-yl)propan-1-one dihydrochlorides] | – | Peak % Pain reversal: time post dose (300 μg/kg IP, peak at 60 min post dose): 42% 60 min |
| N[C@@H](C(=O)N1CCCC1)[C@@H](O)c1ccc2ccccc2n1 (racemic) [Compound 30, DL-threo-2-Amino-3-hydroxy-1-(pyrrolidin-1-yl)-3-(quinolin-2-yl)propan-1-one dihydrochloride] | 53 | – |
| N[C@@H](C(=O)N1CCCC1)[C@@H](O)c1ccncc1 [Compound 203, (−)-(2R,3S)-2-Amino-3-hydroxy-3-(pyridin-4-yl)-1-(pyrrolidin-1-yl)propan-1-one dihydrochloride] | 87 | – |
| N[C@@H](C(=O)N1CCCC1)[C@@H](O)c1ccnc(Cl)c1 (racemic) [Compound 41, DL-threo-2-Amino-3-(2-chloropyridin-4-yl)-3-hydroxy-1-(pyrrolidin-1-yl)propan-1-one dihydrochloride] | 70 | – |
| O=C(N[C@@H](C(=O)N1CCCC1)[C@@H](O)c1ccncc1)c1ccccc1 (racemic) [Compound 55, N-(DL-threo-1-Hydroxy-3-oxo-1-(pyridin-4-yl)-3-(pyrrolidin-1-yl)propan-2-yl)benzamide hydrochloride] | 58 | – |
| CN[C@@H](C(=O)N1CCCC1)[C@@H](O)c1ccncc1 (racemic) [Compound 61, DL-threo-3-Hydroxy-2-(methylamino)-3-(pyridin-4-yl)-1-(pyrrolidin-1-yl)propan-1-one dihydrochloride] | 64 | – |
| N[C@H](C(=O)N1CCCC1)[C@H](O)c1ccncc1 [Compound 204, (+)-(2S,3R)-2-Amino-3-hydroxy-3-(pyridin-4-yl)-1-(pyrrolidin-1-yl)propan-1-one dihydrochloride] | 50 | – |
| CC(C)(C)OC(=O)N[C@@H](C(=O)N1CCCC1)[C@@H](O)c1ccncc1 (racemic) [Compound 218, tert-butyl(±)-threo-1-hydroxy-3-oxo-1-(pyridin-4-yl)-3-(pyrrolidin-1-yl)propan-2-ylcarbamate hydrochloride] | 32 | – |
| N[C@@H](C(=O)N1CCCC1)[C@@H](O)c1ccoc1 (racemic) [Compound 27, DL-threo-2-Amino-3-(furan-3-yl)-3-hydroxy-1-(pyrrolidin-1-yl)propan-1-one hydrochloride] | – | inhibition in vivo at 0.3 mg/kg [2]: 42% |
| N[C@@H](C(=O)N1CCCC1)[C@@H](O)c1cccs1 (racemic) [Compound 24, DL-threo-2-Amino-3-hydroxy-1-(pyrrolidin-1-yl)-3-(thiophen-2-yl)propan-1-one hydrochloride] | 60 | – |
| CCN(CC)C(=O)[C@H](N)[C@@H](O)c1ccncc1 (racemic) [Compound 40, DL-threo-2-Amino-N,N-diethyl-3-hydroxy-3-(pyridin-4-yl)propanamide dihydrochloride] | 47 | – |
| N[C@@H](C(=O)N1CCCCC1)[C@@H](O)c1ccncc1 (racemic) [Compound 35, DL-threo-2-Amino-3-hydroxy-3-(pyridin-4-yl)-1-(piperidin-1-yl)propan-1-one dihydrochloride] | 92 | – |
| O=C([C@H](N[C@@H](CO)c1ccccc1)[C@@H](O)c1ccncc1)N1CCCC1 [Compound 234, (2R,3S)-2-((R)-2-Hydroxy-1-phenylethylamino)-3-hydroxy-3-(pyridin-4-yl)-1-(pyrrolidin-1-yl)propan-1-one dihydrochloride] | 59 | – |
| N[C@@H](C(=O)N1CCCC1)[C@H](O)c1ccncc1 [Compound 220, (−)-(2R,3R)-2-amino-3-hydroxy-3-(pyridin-4-yl)-1-(pyrrolidin-1-yl)propan-1-one dihydrochloride] | – | inhibition in vivo at 0.3 mg/kg [2]: 32% |
| N[C@@H](C(=O)N1CCC(F)(F)C1)[C@@H](O)c1ccncc1 (racemic) [Compound 213, (±)-threo-2-Amino-1-(3,3-difluoropyrrolidin-1-yl)-3-hydroxy-3-(pyridin-4-yl)propan-1-one dihydrochloride] | – | inhibition in vivo at 0.3 mg/kg [2]: 85% |
| O=C([C@H](NCc1ccc(Cl)c(Cl)c1)[C@@H](O)c1ccncc1)N1CCCC1 (racemic) [Compound 68, DL-threo-2-(3,4-Dichlorobenzylamino)-3-hydroxy-3-(pyridin-4-yl)-1-(pyrrolidin-1-yl)propan-1-one dihydrochloride] | – | inhibition in vivo at 0.3 mg/kg (Rattus norvegicus, po, 1 h, 300 μg/kg PO, peak at 60 min post dose, read-out: Peak % Pain reversal: time post dose): 94% |
| COc1ccc(C(=O)N[C@@H](C(=O)N2CCCC2)[C@@H](O)c2ccncc2)cc1 (racemic) [Compound 56, N-(DL-threo-1-Hydroxy-3-oxo-1-(pyridin-4-yl)-3-(pyrrolidin-1-yl)propan-2-yl)-4-methoxy-benzamide hydrochloride] | 67 | – |
| NC(C(=O)N1CCCC1)C(O)c1ccsc1 (single isomer, unassigned; (-)) [Compound 206, (−)-threo-2-Amino-3-hydroxy-1-(pyrrolidin-1-yl)-3-(thiophen-3-yl)propan-1-one hydrochloride] | – | Peak % Pain reversal: time post dose (300 μg/kg IP, peak at 30 min post dose, hydrochloride): 67% 30 min |
| N[C@@H](C(=O)N1CCCC1)[C@@H](O)c1ccsc1 (racemic) [Compound 23, DL-threo-2-Amino-3-hydroxy-1-(pyrrolidin-1-yl)-3-(thiophen-3-yl)propan-1-one hydrochloride] | – | inhibition in vivo at 0.03 mg/kg (Rattus norvegicus, po, 1 h, 30 μg/kg PO, peak at 60 min post dose, read-out: Peak % Pain reversal: time post dose): 100% |
